Assay results published in article PMC11595864, “Design, Synthesis, and Evaluation of Novel Thiazole-Containing Algicides Inspired by Bacillamide A” (Marine Drugs, 2024).
≈ marks a conversion by molar mass, not a printed value.

How the values were obtained:
S. costatum [1] = experiment: Algicidal activity assay, EC50; format: cell-based, Skeletonema costatum; conditions: Skeletonema costatum; Mean ± SD, n = 3; read-out: EC50 S. costatum
Description: (§1) P. minimum, A. pacificum, and S. costatum were purchased from Guangyu Biological Technology Co., Ltd. (Shanghai, China). The algae strain was cultured in F/2 medium ((12 h light: 12 h dark cycle), 20 ± 1 °C, 70 μmol m^−2 s^−1). Purchased algae were transferred to sterile conical flasks for culture; after the algae proliferation was stabilized, the expanded culture was next carried out following standard conditions.
(§2) Copper sulfate and Diuron were used as the positive controls. EC50 values were calculated according to the equation of the quantity–effect relationship in Equation (2) using the Hill model of Graph Pad Prism software (8.0.2). (2) Y=Bottom+(Top-Bottom)/1+10^(Log EC50-X)×Hill Slope
(§3) The X and Y values represent the concentration (mg/L) and response values of the control and experimental groups, respectively. The Top, Bottom, and Hill Slope represent the maximum response, minimum response, and the curve slope, respectively. The EC50 represents half of the maximum effective concentration.

A. pacificum [2] = experiment: Algicidal activity assay, EC50; format: cell-based, Alexandrium pacificum; conditions: for EC50: Alexandrium pacificum, Mean ± SD, n = 3
Description: as §1, §2, §3

P. minimum [3] = experiment: Algicidal activity assay, EC50; format: cell-based, Prorocentrum minimum; conditions: for EC50: Prorocentrum minimum, Mean ± SD, n = 3, read-out: EC50 P. minimum
Description: as §1, §2, §3

S. costatum [4] = experiment: Growth-inhibition rate measurement at 50 mg/L, 24 h; format: cell-based, Skeletonema costatum
Description: as §1
(§4) The stock solutions of bacillamide A and different BDs were prepared in dimethyl sulfoxide (DMSO) with the requisition amount. […] The controls received the same volume of DMSO. The inhibitory activities of bacillamide A, different BDs, and positive controls were screened by 96 well microtiter plates at different concentrations. Inhibition ratios (IRs) of cupric sulfate (50 mg/L, positive control), bacillamide A (50 mg/L), and BDs (50 mg/L) were calculated on algae using Equation (1). (1) IR=Cc0-Cex/Cc0×100%
(§5) The CC0 and Cex, respectively, represent the algal densities of the control and experimental groups.

P. minimum [5] = experiment: as above; format: cell-based, Prorocentrum minimum; conditions: Prorocentrum minimum, read-out: inhibition rate against P. minimum
Description: as §1, §4, §5

A. pacificum [6] = experiment: as above; format: cell-based, Alexandrium pacificum; conditions: Alexandrium pacificum, read-out: inhibition rate against A. pacificum
Description: as §1, §4, §5

zebrafish = experiment: Zebrafish acute toxicity assay; format: in vivo
Description: Zebrafish acute toxicity of bacillamide A and synthesized BDs were evaluated at 0.1 mg/L, 1 mg/L, and 10 mg/L, respectively. Diuron and CuSO4 were used as positive controls. The commercial zebrafish (body length > 3.0 cm) were domesticated in aerated tap water for 24 h, fed once daily for seven consecutive days, and stopped being fed before the experiment.
4. Acute toxicity table S1.
Compound Concentration Survival percent Acute
aAccording to the Guide for Environmental Safety Assessment of Chemical Pesticides
4 groups and treated with different compounds for 96 h.

S. costatum [7] = experiment: Observation of cellular morphology (optical microscope, SEM); format: cell-based, Skeletonema costatum; conditions: 10 mg/L, 4 h
Description: (§6) There were morphological changes of algae cells treated by bacillamide A, BDs, and the positive control (CuSO4). […] Cell samples were centrifuged at 12,000 rpm for 10 min, collected, fixed, gradient-dehydrated, and freeze-dried after gold coating following the reported procedure. The SEM analyses were performed by scanning electron microscopy (SEM, JSM-7900F, […], Tokyo, Japan).

P. minimum [8] = experiment: as above; format: cell-based, Prorocentrum minimum; conditions: 10 mg/L, 4 h
Description: as §6

A. pacificum [9] = experiment: Observation of cellular morphology (optical microscope); format: cell-based, Alexandrium pacificum; conditions: 10 mg/L, 4 h
PSII in P. minimum = experiment: Quantum yield Fv/Fm of PSII; format: cell-based, Prorocentrum minimum; conditions: 10 mg/L, 72 h, versus negative control
Description: (§7) P. minimum, S. costatum, and A. pacificum cells were cultured in F/2 medium. All flasks were cultivated under 12 h of light: 12 h of dark and 70 μmol m^−2 s^−1 at 20 ± 1 °C. […] Finally, the algal cells were collected and diluted in 6 mL of phosphate buffer (pH = 7.8). A small amount of quartz sand was added into the algal cells under ice bath. The obtained homogenate was next poured into a centrifuge tube and centrifuged at 5000 r/min for 25 min at 4 °C. The obtained supernatant was placed in the refrigerator at 4 °C for the next step experiment.
(§8) Fv/Fm values were determined by using AquaPen handheld algae fluorescence meter (Nanjing Mingao Instrument Co., Ltd., Nanjing, China). The algae cells were darkened for 30 min and Fv/Fm values were measured.

PSII in S. costatum = experiment: Quantum yield Fv/Fm of PSII; format: cell-based, Skeletonema costatum; conditions: 10 mg/L, 72 h, versus negative control
Description: as §7, §8

P. minimum [10] = experiment: ROS level (DCFH-DA fluorescent probe assay); format: cell-based, Prorocentrum minimum; conditions: 10 mg/L, 72 h
Description: as §7
(§9) The reactive oxygen species (ROS) assay kit was purchased from SolarBio Co., Ltd., Beijing, China. The 2′,7′-dichlorodihydrofluorescein diacetate (DCFH-DA) could be oxidized by reactive oxygen or nitrogen species (ROS/RNS) to generate high fluorescent 2′,7′-dichlorofluoroscein (DCF). DCF could be detected by Cyto-FLEX flow cytometry.

S. costatum [11] = experiment: ROS level (DCFH-DA fluorescent probe assay); format: cell-based, Skeletonema costatum; conditions: 10 mg/L, 72 h
Description: as §7, §9

P. minimum [12] = experiment: MDA level (thiobarbituric acid assay kit); format: cell-based, Prorocentrum minimum; conditions: 10 mg/L, 72 h, versus control (DMSO)
Description: as §7
(§10) The malondialdehyde (MDA) assay kit was purchased from Lvyuandade Biochemical Co, Ltd., Beijing, China. The MDA parameter was monitored according to the procedure provided by the manufacturer. A total of 1 mL of algal extract was mixed with thiobarbituric acid solution (2 mL, 0.6%). The solution was sealed and kept in a boiling water bath for 15 min, followed by being cooled and centrifuged at 4500 r/min for 10 min. The absorbance values of collected supernatant were measured and calculated by the Formula (3) at 600 nm, 532 nm, and 450 nm:MDA content (nmol∙mgprot^−1) = 6.45 × (A532 − A600) − 0.56 × A450(3)

S. costatum [13] = experiment: MDA level (thiobarbituric acid assay kit); format: cell-based, Skeletonema costatum; conditions: 10 mg/L, 72 h, versus control (DMSO)
Description: as §7, §10

[14] = tested on: other microalgae (e.g., diatoms, cyanobacteria, green algae); design: method as in doi:10.1016/j.tetlet.2003.08.115, PMID 17454826; conditions: cited from earlier work
Salmonella choleraesuis = tested on: Salmonella choleraesuis; design: method as in PMID 32483303; conditions: cited from earlier work
Vibrio cholerae = tested on: Vibrio cholerae; design: method as in PMID 32483303; conditions: cited from earlier work
Alternaria sp. = tested on: Alternaria sp.; design: method as in PMID 32483303; conditions: cited from earlier work

CCCCc1nc(C(=O)NCCc2c[nH]c3ccccc23)cs1 [Compound 6j]
EC50 (S. costatum [1]): 0.3 ± 0.02 µg/mL (≈ 0.916 µM) | EC50 (A. pacificum [2]): 0.47 ± 0.25 µg/mL (≈ 1.44 µM) | fold more potent than natural bacillamide A, Diuron, and CuSO4 (A. pacificum [2]; from EC50 against A. pacificum): 3–5 fold | EC50 (P. minimum [3]): 1 ± 0.11 µg/mL (≈ 3.05 µM) | fold more potent than natural bacillamide A, Diuron, and CuSO4 (P. minimum [3]; from EC50 against P. minimum): 3–5 fold | inhibition rate against S. costatum (S. costatum [4]): 81.7% | inhibition at 50 µg/mL (S. costatum [4]; Skeletonema costatum, read-out: inhibition rate against S. costatum): > 70% | inhibition at 50 µg/mL (P. minimum [5]): 71.9% | inhibition at 50 µg/mL (A. pacificum [6]): 70 to 95% | mortality in zebrafish (zebrafish; 10 mg/L, treatment for more than 48 h): 100% | Survival percent (zebrafish; zebrafish, 0.1 mg/L, 0h): 100 | Survival percent (zebrafish; zebrafish, 0.1 mg/L, 24h): 100 | Survival percent (zebrafish; zebrafish, 0.1 mg/L, 48h): 100 | Survival percent (zebrafish; zebrafish, 0.1 mg/L, 72h): 100 | Survival percent (zebrafish; zebrafish, 0.1 mg/L, 96h): 100 | Survival percent (zebrafish; zebrafish, 1 mg/L, 0h): 100 | Survival percent (zebrafish; zebrafish, 1 mg/L, 24h): 100 | Survival percent (zebrafish; zebrafish, 1 mg/L, 48h): 100 | Survival percent (zebrafish; zebrafish, 1 mg/L, 72h): 80 | Survival percent (zebrafish; zebrafish, 1 mg/L, 96h): 80 | Survival percent (zebrafish; zebrafish, 10 mg/L, 0h): 100 | Survival percent (zebrafish; zebrafish, 10 mg/L, 24h): 80 | Survival percent (zebrafish; zebrafish, 10 mg/L, 48h): 0 | Survival percent (zebrafish; zebrafish, 10 mg/L, 72h): 0 | Survival percent (zebrafish; zebrafish, 10 mg/L, 96h): 0 | cell morphology of S. costatum, micrographs (S. costatum [7]): broken or damaged or both | cell morphology of P. minimum, micrographs (P. minimum [8]): broken or damaged or both | cell morphology of A. pacificum, micrographs (A. pacificum [9]): broken or damaged or both | decrease of Fv/Fm of PSII in P. minimum (PSII in P. minimum): 3 fold | decrease of quantum yield Fv/Fm of PSII in S. costatum (PSII in S. costatum): 27 fold | increase of ROS levels in P. minimum (P. minimum [10]): 5.4 fold | increase of ROS levels in S. costatum (S. costatum [11]): 3 fold | increase of MDA levels in P. minimum (P. minimum [12]): 2.3 fold | increase of MDA levels in S. costatum (S. costatum [13]): 2.2 fold

CC(=O)c1nc(C(=O)NCCc2c[nH]c3ccccc23)cs1 [bacillamide A]
EC50 (S. costatum [1]): 2.51 ± 0.09 µg/mL (≈ 8.01 µM) | EC50 (A. pacificum [2]): 2.17 ± 0.31 µg/mL (≈ 6.92 µM) | EC50 (P. minimum [3]): 3.93 ± 0.28 µg/mL (≈ 12.5 µM) | inhibition at 50 µg/mL (A. pacificum [6]): 55.3% | Survival percent (zebrafish; zebrafish, 0.1 mg/L, 0h): 100 | Survival percent (zebrafish; zebrafish, 0.1 mg/L, 24h): 100 | Survival percent (zebrafish; zebrafish, 0.1 mg/L, 48h): 100 | Survival percent (zebrafish; zebrafish, 0.1 mg/L, 72h): 100 | Survival percent (zebrafish; zebrafish, 0.1 mg/L, 96h): 100 | Survival percent (zebrafish; zebrafish, 1 mg/L, 0h): 100 | Survival percent (zebrafish; zebrafish, 1 mg/L, 24h): 100 | Survival percent (zebrafish; zebrafish, 1 mg/L, 48h): 87 | Survival percent (zebrafish; zebrafish, 1 mg/L, 72h): 83 | Survival percent (zebrafish; zebrafish, 1 mg/L, 96h): 83 | Survival percent (zebrafish; zebrafish, 10 mg/L, 0h): 100 | Survival percent (zebrafish; zebrafish, 10 mg/L, 24h): 100 | Survival percent (zebrafish; zebrafish, 10 mg/L, 48h): 100 | Survival percent (zebrafish; zebrafish, 10 mg/L, 72h): 100 | Survival percent (zebrafish; zebrafish, 10 mg/L, 96h): 100 | Acute toxicity (zebrafish; zebrafish, class by GB/T31270.12, LC50 (96 h)): low (LC50 (96 h) > 10 mg/L, low toxicity) | decrease of Fv/Fm of PSII in P. minimum (PSII in P. minimum): 2 fold | decrease of quantum yield Fv/Fm of PSII in S. costatum (PSII in S. costatum): 4 fold | increase of MDA levels in P. minimum (P. minimum [12]): 2.0 fold | increase of MDA levels in S. costatum (S. costatum [13]): 2.6 fold | algicidal activities against other microalgae [14]: did not display algicidal activities | antibacterial activity (Salmonella choleraesuis): moderate antibacterial activity | antibacterial activity (Vibrio cholerae): moderate antibacterial activity | antifungal activity (Alternaria sp.): slight antifungal activity
